One experiment deals with IL-6 (THP-1 cells). In words: Inhibition of IL-6 in LPS-stimulated THP-1 monocytes (HTRF). The experiment is classed as cell-based. The note with it: Homo sapiens; for EC50: LPS 500 ng/mL, IL-6 by HTRF; for inhibition at 10 µM: LPS stimulated, IL-6, at 10 μM, read-out: percent inhibition at 10 μM (given for EC50 of >10 μM). The gist of the method:
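THP-1 cells, serum-starved in 1% FBS for 24 h, were pre-incubated 2 h with compound (10-point, 1:3 from 10 μM, 0.1% DMSO), then stimulated with 500 ng/mL LPS for 22 h at 37 °C. IL-6 was quantified by HTRF 665/620 ratio. EC50 was fitted from DMSO-normalized data; above 10 μM, % inhibition at 10 μM is given.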

The test system of experiment [1] is primary human mesenchymal stem cells (hMSCs). In words: Induction of chondrogenesis in primary human mesenchymal stem cells (nodule imaging, Rhodamine B/Nile Red). It counts as cell-based. The note with it: hMSC chondrogenesis; for Emax: TGF-β3 as positive control, read-out: Max. Activity as % TGF-β3 activity; for EC50: concentration required to induce 50% levels of chondrogenesis vs TGF-β3, read-out: Conc (nM) of 50% TGF-β3 activity. On the procedure: Representative compounds were screened using primary human mesenchymal stem cells (hMSCs) to determine their ability to induce chondrogenesis (process by which cartilage is developed).
Primary human mesenchymal stem cells (hMSCs) were purchased from Lonza (Walkersville, Md.) and expanded in Mesenchymal Stem Cell Growth Media (Lonza). Cells between passage 3 and 6 were used for the experiments.
Each compound was dissolved in DMSO as a 10 mM stock and used to prepare compound source plates. For the 96 well assay, serial dilution (1:3, 6-point dose-response curves from 2700 nM to 10 nM) and compound transfer was performed using the ECHO 550 (Labcyte, Sunnyvale, Calif.) into 96-well clear bottom assay plates (Greiner Bio-One) with appropriate DMSO backfill for a final DMSO concentration of 0.03%. hMSCs were plated at 20,000 cells/well in 250 μL/well Incomplete Chondrogenic Induction Medium (Lonza; DMEM, dexamethasone, ascorbate, insulin-transferrin-selenium [ITS supplement], gentamycin-amphotericin [GA-1000], sodium pyruvate, proline and L-glutamine). TGF-−3 (10 ng/mL) was used as a positive control for differentiation while negative control wells were treated with 75 nL DMSO for normalization and calculating EC50 values. For the 384 well assay, serial dilution (1:3, 8-point dose-response curves from 5000 nM to 2.2 nM) and compound transfer was performed using the ECHO 550 (Labcyte, Sunnyvale, Calif.) into 384-well clear bottom assay plates (Greiner Bio-One) with appropriate DMSO backfill for a final DMSO concentration of 0.03%. hMSCs were plated at 8,000 cells/well in 80 μL/well Incomplete Chondrogenic Induction Medium (Lonza; DMEM, dexamethasone, ascorbate, insulin-transferrin-selenium [ITS supplement], gentamycin-amphotericin [GA-1000], sodium pyruvate, proline and L-glutamine). TGF-β3 (10 ng/mL) was used as a positive control for differentiation while negative control wells were treated with 25 nL DMSO for normalization and calculating EC50 values. Cells were incubated at 37° C. and 5% CO2 for 6 days. To image chondrogenic nodules, the cells were fixed using 4% formaldehyde (Electron Microscopy Sciences), and stained with 2 μg/mL Rhodamine B (Sigma-Aldrich) and 20 μM Nile Red (Sigma-Aldrich) [Johnson K., et. al, A Stem Cell-Based Approach to Cartilage Repair, Science, (2012), 336(6082), 717-721]. The nodules imaged (25 images per well for 96 well plates and 9 images per well for 384 well plates at 10× magnification) by excitation at 531 nm and emission at 625 nm and quantified using the CellInsight CX5 (Thermo Scientific). Area of nodules in each well was normalized to the average of 3 DMSO treated wells on the same plate using Excel (Microsoft Inc.). The normalized averages (fold change over DMSO) of 2 or 3 replicate wells for each compound concentration were calculated. Due to solubility limitations of some of the compounds, curve fitting was incomplete leading to inaccurate EC50 determinations.
Using TGF-β3 as a positive control, the concentration of representative compounds required to induce 50% levels of chondrogenesis is reported. In addition, the maximum activity of each compound and the respective dose that each compound reached maximum chondrogenesis activity is reported.

A word on the inhibition: it is the share of the control response that was lost under treatment.

The structures appear in SMILES notation.

For `Cc1cn(-c2ccnc3[nH]c(-c4n[nH]c5ccc(-c6cncc(NC(=O)CC(C)C)c6)nc45)nc23)cn1` [Compound 198, 3-methyl-N-(5-(3-(7-(4-methyl-1H-imidazol-1-yl)-3H-imidazo[4,5-b]pyridin-2-yl)-1H-pyrazolo[4,3-b]pyridin-5-yl)pyridin-3-yl)butanamide], in the experiment on IL-6 (THP-1 cells), the EC50 is above 10000 nM and the inhibition at 10 µM worked out at 29.1%. The Emax in experiment [1] was determined as 27%.

In the case of `Cc1cn(-c2ccnc3[nH]c(-c4n[nH]c5ccc(-c6cncc(NC(=O)C(C)(C)C)c6)nc45)nc23)cn1` [Compound 204, N-(5-(3-(7-(4-methyl-1H-imidazol-1-yl)-3H-imidazo[4,5-b]pyridin-2-yl)-1H-pyrazolo[4,3-b]pyridin-5-yl)pyridin-3-yl)pivalamide], in the experiment with IL-6 (THP-1 cells), the EC50 was above 10000 nM and the inhibition at 10 µM came to 36.3%. In experiment [1], the Emax was found to be 70% and the EC50 was determined as 10 nM.

In the case of `Cc1cn(-c2ccnc3[nH]c(-c4n[nH]c5ccc(-c6cncc(CN7CCCC7)c6)nc45)nc23)cn1` [Compound 210, 3-(7-(4-methyl-1H-imidazol-1-yl)-3H-imidazo[4,5-b]pyridin-2-yl)-5-(5-(pyrrolidin-1-ylmethyl)pyridin-3-yl)-1H-pyrazolo[4,3-b]pyridine], in the experiment with IL-6 (THP-1 cells), the EC50 is above 10000 nM and the inhibition at 10 µM turned out to be 21.7%. In addition, in experiment [1], the Emax was 49%.

Consider `Cc1cn(-c2ccnc3[nH]c(-c4n[nH]c5ccc(-c6cncc(NC(=O)C7CCC7)c6)nc45)nc23)cn1` [Compound 217, N-(5-(3-(7-(4-methyl-1H-imidazol-1-yl)-3H-imidazo[4,5-b]pyridin-2-yl)-1H-pyrazolo[4,3-b]pyridin-5-yl)pyridin-3-yl)cyclobutanecarboxamide], for which, in the experiment on IL-6 (THP-1 cells), the EC50 is above 10000 nM and the inhibition at 10 µM stood at 35.6%. Also, in experiment [1], the Emax is 69% and the EC50 was 300 nM.

For the compound `CN1CCN(c2ccnc3[nH]c(-c4n[nH]c5ccc(-c6cncc(N)c6)nc45)nc23)CC1` [Compound 227, 5-(3-(7-(4-methylpiperazin-1-yl)-3H-imidazo[4,5-b]pyridin-2-yl)-1H-pyrazolo[4,3-b]pyridin-5-yl)pyridin-3-amine], in the experiment on IL-6 (THP-1 cells), the EC50 was above 10000 nM and the inhibition at 10 µM turned out to be 51.9%. In addition, the Emax in experiment [1] turned out to be 47%.

Turning to `CC(C)C(=O)Nc1cncc(-c2ccc3[nH]nc(-c4nc5c(N6CCN(C)CC6)ccnc5[nH]4)c3n2)c1` [Compound 233, N-(5-(3-(7-(4-methylpiperazin-1-yl)-3H-imidazo[4,5-b]pyridin-2-yl)-1H-pyrazolo [4,3-b]pyridin-5-yl)pyridin-3-yl)isobutyramide], in the experiment with IL-6 (THP-1 cells), the EC50 was above 10000 nM and the inhibition at 10 µM was found to be 16.4%. In experiment [1], the Emax amounted to 62% and the EC50 stood at 900 nM.

On to `c1cncc(-c2ccc3[nH]nc(-c4nc5cccnc5[nH]4)c3n2)c1` [Compound 256, 3-(3H-imidazo[4,5-b]pyridin-2-yl)-5-(pyridin-3-yl)-1H-pyrazolo[4,3-b]pyridine], for which, in the experiment on IL-6 (THP-1 cells), the EC50 is above 10000 nM and the inhibition at 10 µM is 24.4%. Moreover, in experiment [1], the Emax worked out at 74% and the EC50 was determined as 10 nM.

On to `CCC(=O)Nc1cncc(-c2ccc3[nH]nc(-c4nc5c(-c6ccsc6)ccnc5[nH]4)c3n2)c1` [Compound 281, N-(5-(3-(7-(thiophen-3-yl)-3H-imidazo[4,5-b]pyridin-2-yl)-1H-pyrazolo[4,3-b]pyridin-5-yl)pyridin-3-yl)propionamide], for which, in the experiment on IL-6 (THP-1 cells), the EC50 is above 10000 nM and the inhibition at 10 µM worked out at 25%. The Emax in experiment [1] worked out at 38%.

As for `CN(C)c1cncc(-c2ccc3[nH]nc(-c4nc5c(-c6cccs6)ccnc5[nH]4)c3n2)c1` [Compound 343, N,N-dimethyl-5-(3-(7-(thiophen-2-yl)-3H-imidazo[4,5-b]pyridin-2-yl)-1H-pyrazolo [4,3-b]pyridin-5-yl)pyridin-3-amine], the EC50 in the experiment on IL-6 (THP-1 cells) turned out to be 4 nM; in experiment [1], 900 nM. Further, in experiment [1], the Emax came to 57%.

Source of the values: patent publication US10329309B2, “3-(3H-imidazo[4,5-B]pyridin-2-yl)-1H-pyrazolo[4,3-B]pyridines and therapeutic uses thereof” (Samumed, LLC, priority 2015, dated 2019).
